Values of other authors in patent US20080248506A1, “Method of Monitoring Anti-Tumor Activity of an Hdac Inhibitor” (Pharmacyclics, Inc., priority 2004, published 2008).

Key:
[1] = test system: H2AX; conditions: myeloid leukemia cell lines (HL60, K562, MDS92L; n=3)
[2] = test system: γ-H2AX

Row | SMILES | H2AX phosphorylation [1] | γ-H2AX accumulation ([2]; compound by itself, no irradiation) | number of irradiated cells that express γ-H2AX foci ([2]; with irradiation)
1 | CC(/C=C/C(=O)NO)=C\[C@@H](C)C(=O)c1ccc(N(C)C)cc1 [Trichostatin] | cause H2AX phosphorylation |  | 
2 | Nc1ccccc1NC(=O)c1ccc(CNC(=O)OCc2cccnc2)cc1 [MS-275] |  | does not produce γ-H2AX accumulation | increase the number of irradiated cells that express γ-H2AX foci
